pEC50: −log10 of the molar value. Read-outs that look alike come from different tables or passages of the source.
Key:
[1] = system: aCD3/aCD28-stimulated human PBMCs; assay: Cytokine production in aCD3/aCD28 stimulated human PBMCs; format: cell-based; settings: PBMC, 18 h
Method in brief: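 Compound effects measured in buffy-coat PBMCs activated 18 h at 37° C by 1 μg/mL each of soluble anti-CD3 (OKT3) and anti-CD28 (28.2), 1e6 cells/mL. Cytokines in harvested supernatants read by MSD or HTRF.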

[2] = system: aCD3/aCD28-stimulated human CD4+-T-cells; assay: IL-2 production and activation markers in aCD3/aCD28 stimulated isolated human CD4+-T-cells; format: cell-based; settings: IL-2 production at 3 μM compound
Method in brief: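 CD4+ T cells isolated from buffy-coat PBMCs by microbeads were plated in Xvivo medium (1.5*10^5 cells/well) and stimulated with anti-CD3/28 mAbs plus compound. IL-2 measured by ELISA in supernatants at 24 h or 48 h; CD25 and proliferation by flow cytometry, CD69 at 24 h. Activity classes based on IL-2 at 3 μM compound.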

[3] = enhancement of IFN-γ production, read-out: Activity Class IFN-γ
[4] = enhancement of IL-2 production, read-out: Activity Class IL-2

SMILES	pEC50 [1, 3]	pEC50 [1, 4]	Activity Class CD4+ [2]
CCCCNC(=O)c1ccc2c(c1)N(Cc1ccc(-n3cncn3)cc1)C(=O)[C@@H](N)CS2.Cl [Example 46, (3R)-3-amino-N-butyl-4-oxo-5-{[4-(1H-1,2,4-triazol-1-yl)phenyl]methyl}-2,3,4,5-tetrahydro-1,5-benzothiazepine-7-carboxamide hydrochloride]	5.30 to 5.80	< 5.30	C (IL-2 production at 3 μM compound concentration between 2-fold increase as compared to mean IL-2 production of stimulated cells in the absence of compounds and <2 ng/mL)
CCCCNC(=O)c1ccc2c(c1)N(Cc1ccc(Cl)cc1)C(=O)[C@@H](N)CS2.Cl [Example 10, (3R)-3-amino-N-butyl-5-[(4-chlorophenyl)methyl]-4-oxo-2,3,4,5-tetrahydro-1,5-benzothiazepine-7-carboxamide hydrochloride]	5.30 to 5.80	< 5.30	C (IL-2 production at 3 μM compound concentration between 2-fold increase as compared to mean IL-2 production of stimulated cells in the absence of compounds and <2 ng/mL)
CCCCNC(=O)c1cc2c(cc1F)SC[C@H](N)C(=O)N2Cc1ccc(Cl)c(F)c1 [Example 57, (3R)-3-amino-N-butyl-5-[(4-chloro-3-fluorophenyl)methyl]-8-fluoro-4-oxo-2,3,4,5-tetrahydro-1,5-benzothiazepine-7-carboxamide]	> 5.80	5.30 to 5.80	C (IL-2 production at 3 μM compound concentration between 2-fold increase as compared to mean IL-2 production of stimulated cells in the absence of compounds and <2 ng/mL)
Cl.N[C@H]1CSc2cc(F)c(C(=O)NCC3CCOCC3)cc2N(Cc2ccc(Cl)c(F)c2)C1=O [Example 56, (3R)-3-amino-5-[(4-chloro-3-fluorophenyl)methyl]-8-fluoro-N-(oxan-4-ylmethyl)-4-oxo-2,3,4,5-tetrahydro-1,5-benzothiazepine-7-carboxamide hydrochloride]	> 5.80	5.30 to 5.80	C (IL-2 production at 3 μM compound concentration between 2-fold increase as compared to mean IL-2 production of stimulated cells in the absence of compounds and <2 ng/mL)
CCCCCCCNC(=O)c1cc2c(cc1F)S(=O)(=O)C[C@H](N)C(=O)N2Cc1ccc(Cl)cc1.Cl [Example 104, (3R)-3-amino-5-[(4-chlorophenyl)methyl]-8-fluoro-N-heptyl-1,1,4-trioxo-2,3,4,5-tetrahydro-1λ^6,5-benzothiazepine-7-carboxamide hydrochloride]	> 5.80	> 5.80	A (IL-2 production at 3 μM compound concentration >10 ng/mL)
Cl.N[C@H]1CS(=O)(=O)c2cc(F)c(C(=O)NCC(F)(F)F)cc2N(Cc2ccc(Cl)cc2)C1=O [Example 92, (3R)-3-amino-5-[(4-chlorophenyl)methyl]-8-fluoro-1,1,4-trioxo-N-(2,2,2-trifluoro-ethyl)-2,3,4,5-tetrahydro-1λ^6,5-benzothiazepine-7-carboxamide hydrochloride]	5.30 to 5.80	5.30 to 5.80	B (IL-2 production at 3 μM compound concentration between 2-10 ng/mL)
Cl.N[C@H]1CSc2ccc(C(=O)NCC3CCOCC3)cc2N(Cc2ccc(OC(F)(F)F)cc2)C1=O [Example 30, (3R)-3-amino-N-(oxan-4-ylmethyl)-4-oxo-5-{[4-(trifluoromethoxy)phenyl]methyl}-2,3,4,5-tetrahydro-1,5-benzothiazepine-7-carboxamide hydrochloride]	< 5.30	5.30 to 5.80	B (IL-2 production at 3 μM compound concentration between 2-10 ng/mL)
Cl.N[C@H]1CS(=O)(=O)c2cc(F)c(C(=O)NC3CC3)cc2N(Cc2ccc(Cl)cc2)C1=O [Example 85, (3R)-3-amino-5-[(4-chlorophenyl)methyl]-N-cyclopropyl-8-fluoro-1,1,4-trioxo-2,3,4,5-tetrahydro-1λ^6,5-benzothiazepine-7-carboxamide hydrochloride]	5.30 to 5.80	5.30 to 5.80	C (IL-2 production at 3 μM compound concentration between 2-fold increase as compared to mean IL-2 production of stimulated cells in the absence of compounds and <2 ng/mL)
Cl.N[C@H]1CSc2cc(F)c(C(=O)NCC3CCOCC3)cc2N(Cc2ccc(Cl)cc2)C1=O [Example 42, (3R)-3-amino-5-[(4-chlorophenyl)methyl]-8-fluoro-N-(oxan-4-ylmethyl)-4-oxo-2,3,4,5-tetrahydro-1,5-benzothiazepine-7-carboxamide hydrochloride]	5.30 to 5.80	< 5.30	C (IL-2 production at 3 μM compound concentration between 2-fold increase as compared to mean IL-2 production of stimulated cells in the absence of compounds and <2 ng/mL)
CC(C)(O)CNC(=O)c1ccc2c(c1)N(Cc1ccc(Cl)cc1)C(=O)[C@@H](N)CS2 [Example 48, (3R)-3-amino-5-[(4-chlorophenyl)methyl]-N-(2-hydroxy-2-methylpropyl)-4-oxo-2,3,4,5-tetrahydro-1,5-benzothiazepine-7-carboxamide]	5.30 to 5.80	< 5.30	C (IL-2 production at 3 μM compound concentration between 2-fold increase as compared to mean IL-2 production of stimulated cells in the absence of compounds and <2 ng/mL)
CC1(NC(=O)c2cc3c(cc2F)S(=O)(=O)C[C@H](N)C(=O)N3Cc2ccc(Cl)cc2)CC1.Cl [Example 99, (3R)-3-amino-5-[(4-chlorophenyl)methyl]-8-fluoro-N-(1-methylcyclopropyl)-1,1,4-trioxo-2,3,4,5-tetrahydro-1λ^6,5-benzothiazepine-7-carboxamide hydrochloride]	5.30 to 5.80	5.30 to 5.80	B (IL-2 production at 3 μM compound concentration between 2-10 ng/mL)
C[C@@H]1[C@H](N)C(=O)N(Cc2ccc(Cl)cc2)c2cc(C(=O)NCCCC(F)(F)F)ccc2S1(=O)=O.Cl [Example 111, (2R,3R)-3-amino-5-[(4-chlorophenyl)methyl]-2-methyl-1,1,4-trioxo-N-(4,4,4-trifluorobutyl)-2,3,4,5-tetrahydro-1λ^6,5-benzothiazepine-7-carboxamide hydrochloride]	5.30 to 5.80	5.30 to 5.80	B (IL-2 production at 3 μM compound concentration between 2-10 ng/mL)
CC(C)(O)CNC(=O)c1cc2c(cc1F)SC[C@H](N)C(=O)N2Cc1ccc(Cl)cc1 [Example 50, (3R)-3-amino-5-[(4-chlorophenyl)methyl]-8-fluoro-N-(2-hydroxy-2-methylpropyl)-4-oxo-2,3,4,5-tetrahydro-1,5-benzothiazepine-7-carboxamide]	5.30 to 5.80	< 5.30	C (IL-2 production at 3 μM compound concentration between 2-fold increase as compared to mean IL-2 production of stimulated cells in the absence of compounds and <2 ng/mL)
CCCCNC(=O)c1ccc2c(c1)N(Cc1cccc(OC(F)(F)F)c1)C(=O)[C@@H](N)CS2.Cl [Example 9, (3R)-3-amino-N-butyl-4-oxo-5-{[3-(trifluoromethoxy)phenyl]methyl}-2,3,4,5-tetrahydro-1,5-benzothiazepine-7-carboxamide hydrochloride]	5.30 to 5.80	< 5.30	C (IL-2 production at 3 μM compound concentration between 2-fold increase as compared to mean IL-2 production of stimulated cells in the absence of compounds and <2 ng/mL)

Source: patent US10472341B2, “Bicyclic tetrahydrothiazepine derivatives useful for the treatment of neoplastic and/or infectious diseases” (APEIRON BIOLOGICS AG, priority 2015, dated 2019)
